Several values for one entry are separate records, joined by “and”; a condition that tells them apart may be missing. Equal entries are not always repeated.
Key:
[1] = molecular target: T1, human transporter OAT3 (Homo sapiens, UniProt Q8TCC7); assay: In vitro ion transport assay 1, OAT3-mediated uptake in MDCK-II cells; type: cell-based
T1 construct: expressed in transfected cells; host or cells: MDCK-II
T1 sequence (Q8TCC7 1-542): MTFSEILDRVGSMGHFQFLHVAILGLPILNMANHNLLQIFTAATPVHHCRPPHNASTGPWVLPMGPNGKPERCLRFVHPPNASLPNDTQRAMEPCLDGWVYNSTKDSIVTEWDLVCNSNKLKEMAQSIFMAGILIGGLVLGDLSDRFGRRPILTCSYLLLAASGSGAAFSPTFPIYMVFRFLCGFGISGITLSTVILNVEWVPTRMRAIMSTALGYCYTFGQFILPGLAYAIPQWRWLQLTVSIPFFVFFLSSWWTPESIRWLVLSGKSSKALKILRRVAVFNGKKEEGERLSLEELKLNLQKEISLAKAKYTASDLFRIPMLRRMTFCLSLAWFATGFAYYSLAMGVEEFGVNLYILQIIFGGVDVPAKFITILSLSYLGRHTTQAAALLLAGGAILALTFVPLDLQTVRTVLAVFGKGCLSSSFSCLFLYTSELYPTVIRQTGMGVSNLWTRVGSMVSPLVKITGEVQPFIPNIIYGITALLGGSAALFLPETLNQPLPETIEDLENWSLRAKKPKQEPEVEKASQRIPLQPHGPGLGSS
Experimental: To determine the effect of the ion transporter inhibitors on the uptake activity of solute carrier (SLC) ion transporter proteins such as OAT1 and OAT3, an ion transport assay utilizing a polarized monolayer of MDCK-II cells grown on permeable supports was used. The MDCK-II cells were treated to express the transporter of interest (e.g., OAT3 or OAT 1) or were treated with a control vector. 96-well culture plates with both donor and receiver cells containing a monolayer of MDCK-II cells were maintained at 37° C. in 5% CO2 atmosphere. Radio-labeled para-aminohippurate ([3H]-PAH) was used as a substrate for measuring OAT1 and OAT3 mediated transport, where the transport of the substrate was determined by radiometric detection. OAT1-mediated transport was assayed using 2 μM of [3H]-PAH; OAT3-mediated transport was assayed using 10 μM of [3H]-PAH. The probe substrate for OAT1 was 2 μM [3H]-p-aminohippurate. The probe substrate for OAT3 was 10 μM [3H]p-aminohippurate. The reference inhibitor for both assays was 100 μM probenecid. Following pre incubation of the transfected MDCK-II cells in HBSS, [3H]-PAH was added at the concentrations described above. Wells were then treated with either reference inhibitor probeneic acid or with the test compound. Cells transfected with empty vector served as an additional control. […]

[2] = tested on: PK-resistant alpha-synuclein; assay: PK-resistant (insoluble) alpha-synuclein IHC, L61 ASYN transgenic mice, 1 month study; type: in vivo; conditions: for reduction of PK-resistant alpha synuclein levels in cortex compared to vehicle-treated mice: L61 ASYN transgenic mice
Experimental: Multiple in vivo administration studies of Compound 1 were carried out in the Line 61 (L61) mThy1-alpha-synuclein transgenic mouse model of Parkinson's disease (PD). The mThy1-alpha-synuclein transgenic mouse model overexpresses wild-type human ASYN under the Thy-1 promoter (commonly referred to as Line 61 transgenic mice; Rockenstein et al., 2002). This transgenic mouse develops extensive accumulation of alpha-synuclein (ASYN) in areas relevant to PD (Rockenstein et al., 2002; Chesselet et al., 2012; Games et al., 2013), neurodegeneration including dopaminergic neurodegeneration, reduced dopamine (DA) and TH loss in the striatum (Masliah et al., 2000; Lam et al., 2011), and motor deficits (Fleming et al., 2004). Male transgenic and non-transgenic littermates (3-3.5 mo) were used for all in vivo studies presented here.
Alpha-synuclein (ASYN) is a neuronal protein whose dysregulation has been implicated in the pathogenesis of PD. The effects of Compound 1 on alpha-synuclein aggregation were assessed in both L61 ASYN transgenic and non-transgenic mice in a 1 month administration study. L61 ASYN transgenic mice (36 total mice, n=8-11 mice per treatment group) were injected (i.p.) daily with 1, 5, or 10 mg/kg of Compound 1 or a vehicle control (5% DMSO+20% Cremphor EL+0.9% normal saline) for 1 month. […] At the end of one month, the mice were sacrificed, and immunohistochemical (IHC) detection of total alpha-synuclein deposits, insoluble alpha-synuclein deposits (PK+resistant), microtubule-associated protein 1A/1B-light chain 3 (LC3), and monomeric alpha-synuclein levels were assessed in the harvested brain tissues.
The quantification and IHC staining of PK-resistant alpha-synuclein were performed using known techniques (Rockenstein et al., J Neurosci Res. 2002, 68(5):568-78; Tanji et al., Acta Neuropathol. 2010, 120, 145-154; Nuber et al., Brain. 2013 February; 136(Pt 2):412-32).

[3] = molecular target: T2, human transporter OATP1B3 (Homo sapiens, UniProt Q9NPD5); assay: In vitro ion transport assay 1, OATP1B3; type: cell-based; conditions: probe substrate 2 μM [3H]-CCK-8
T2 construct: expressed in transfected cells; host or cells: MDCK-II
T2 sequence (Q9NPD5 1-702): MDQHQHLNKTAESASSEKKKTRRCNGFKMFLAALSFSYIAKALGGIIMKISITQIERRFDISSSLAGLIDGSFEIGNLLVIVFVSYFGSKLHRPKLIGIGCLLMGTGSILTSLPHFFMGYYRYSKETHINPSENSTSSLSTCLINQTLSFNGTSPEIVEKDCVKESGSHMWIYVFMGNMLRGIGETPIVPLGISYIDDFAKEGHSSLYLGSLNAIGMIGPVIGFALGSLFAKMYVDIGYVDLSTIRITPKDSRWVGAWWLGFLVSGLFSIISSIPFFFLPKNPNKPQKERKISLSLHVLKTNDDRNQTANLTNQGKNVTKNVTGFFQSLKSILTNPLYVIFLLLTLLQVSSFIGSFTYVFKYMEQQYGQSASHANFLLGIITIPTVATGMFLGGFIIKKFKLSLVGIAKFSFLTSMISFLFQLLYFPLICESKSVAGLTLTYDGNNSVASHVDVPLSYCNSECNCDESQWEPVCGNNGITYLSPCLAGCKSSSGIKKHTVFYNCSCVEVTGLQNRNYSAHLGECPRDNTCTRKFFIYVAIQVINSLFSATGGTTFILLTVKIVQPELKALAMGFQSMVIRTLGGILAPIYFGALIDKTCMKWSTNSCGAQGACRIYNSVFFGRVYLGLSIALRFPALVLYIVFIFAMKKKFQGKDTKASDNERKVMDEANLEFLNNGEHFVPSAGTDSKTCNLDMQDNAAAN
Experimental: Compound 1 was studied in the concentration range of 0.1-100 μM for its potency against transport mediated by various transporter proteins. [table]

O=S(=O)(c1ccc(-n2cn[nH]c2=S)cc1)c1ccc(Cl)c(C(F)(F)F)c1 [Compound 1, 4-(4-((4-chloro-3-(trifluoromethyl)phenyl)sulfonyl)phenyl)-2,4-dihydro-3H-1,2,4-triazole-3-thione]
potency against OAT3 compared with potency against OAT1 ([1]; OAT3 vs OAT1, [3H]-PAH uptake): about 20 fold | IC50 ([1]; assay 1, probe substrate 10 μM [3H]-p-aminohippurate, MDCK-II cells): 620 nM and 622 nM | reduction of PK-resistant alpha synuclein levels in cortex compared to vehicle-treated mice ([2]; 5 mg/kg daily i.p.): 37% | reduction of PK-resistant alpha synuclein levels in cortex compared to vehicle-treated mice ([2]; 10 mg/kg daily i.p.): 36% | insoluble alpha-synuclein deposits (PK+resistant) in cortex, hippocampus and striatum ([2]; 1, 5 or 10 mg/kg per day i.p., statistically significant): reduced the insoluble alpha-synuclein deposits | IC50 [3]: 51200 nM

Reference: patent publication US20210290597A1, “METHOD OF TREATING A CONDITION ASSOCIATED WITH NEURODEGENERATION USING INHIBITORS OF OAT3” (Neuropore Therapies, Inc., priority 2018, published 2021)
